These compounds were tested on Nicotiana benthamiana (assay: Test Example 4: growth promotion under low-temperature stress by hydroponics of Nicotiana benthamiana (10 ppm)). Settings: compound at 10 ppm, 7 days at 1.5±1.0° C. low-temperature stress, then 3 days at 22° C., 5 or greater = growth promotion effect, read-out: value of a relative leaf area (Equation (1), area of green leaf).
Assay type: in vivo
Description: Test Example 4. Test for Evaluating Growth Promotion Under Low-Temperature Stress by Hydroponics of Nicotiana benthamiana
(§1) (Cultivation and Compound Treatment)
(§2) A DMSO solution, which contained one of the compounds 4, 5, 6, 8, 14, 17, 19, 22, 26, 45, 51, 53, 57, 59, 65, 69, 70, 75, 77, 79, 91, 97, 99, 101, and 110 of the present invention at a concentration of 10,000 ppm, was prepared. The DMSO solution of the compound of the present invention was added at a volume ratio of 1/1,000 to the Murashige⋅Scoog medium of a ½-fold concentration (a medium containing 2.3 g of mixed salts (manufactured by Wako Pure Chemical Industries, Ltd.), 200 mg of Myo-inositol (manufactured by Sigme-Aldrich Co. LLC.), 2 mg of niconitic acid (manufactured by Wako Pure Chemical Industries, Ltd.), 2 mg of pyridoxine hydrochloride (manufactured by Wako Pure Chemical Industries, Ltd.), 20 mg of thiamine hydrochloride (manufactured by Wako Pure Chemical Industries, Ltd.), 20 g of sucrose (manufactured by Wako Pure Chemical Industries, Ltd.), and 1 g of MES (manufactured by DOJINDO LABORATORIES) respectively per 1 L of water and having pH adjusted to 5.8), thereby preparing a medium containing the compound of the present invention at a concentration of 10 ppm.
(§3) Seeds of Nicotiana benthamiana were seeded in the 5 of the medium and cultured overnight at 22° C. Thereafter, 45 μL of the medium containing the compound of the present invention at a concentration of 10 ppm was added thereto, and the seeds are cultured for 7 days at 22° C., under the conditions of an illuminance of 4,000 lux, and a day length of 16 hours, and the seedling raised from the Nicotiana benthamiana were treated with the compound. Moreover, instead of the above medium a test plot, which was obtained by performing the same treatment by using a medium prepared by adding DMSO to the Murashige⋅Scoog medium of ½-fold concentration at a volume ratio of 1/1,000, was used as a control plot not treated with the compound.
(§4) (Low-Temperature Stress Treatment)
(§5) The seedlings of the Nicotiana benthamiana treated with the compound were subjected to low-temperature treatment by being cultured for 7 days at 1.5±1.0° C., under the conditions of an illuminance of 2,000 lux, and a day length of 16 hours.
(§6) The seedlings of the Nicotiana benthamiana having undergone the low-temperature stress treatment were cultured for 3 days at 22° C., an illuminance of 4,000 lux, and a day length of 16 hours. Thereafter, the area of green leaf was quantified by Scanalyzer HTS (manufactured by LemnaTec GmbH). Moreover, the value of the control plot not treated with the compound that had not yet been subjected to the low-temperature stress treatment was measured in the same manner. A value of a relative leaf area was calculated based on the following equation (1), and if the relative value of leafed area was 5 or greater, the compound was evaluated to have a growth promotion effect. As a result of the evaluation, it was confirmed that when the plant was treated with one of the compounds 4, 5, 6, 8, 14, 17, 19, 22, 26, 45, 51, 53, 57, 59, 65, 67, 69, 70, 75, 77, 79, 91, 97, 99, 101, and 110 of the present invention at 10 ppm, the value of a relative leaf area was 5 or greater, compared to the area of green leaf of the control plot not treated with compound. Accordingly, it was confirmed that the treatment using the compound of the present invention improve a growth promotion effect. Relative leaf area=100*(a green area of a plot treated with the compound of the present invention minus(−) a green area of a plot not treated with the compound of the present invention)/(a green area of a control plot not treated with the compound of the present invention that had not yet been subjected to low-temperature stress treatment minus(−) a green area of a control plot not treated with the compound of the present invention) Equation (1): […]
`O=C(O)c1cc2cc(S(F)(F)(F)(F)F)ccc2s1` [Present compound 101, 5-pentafluorosulfanylbenzo[b]thiophene-2-carboxylic acid] showed a relative green leaf area at 10 ppm of no less than 5%. `O=C(O)c1cc2ccc(OCc3ccc(C(F)(F)F)cc3)cc2s1` [Present compound 91, 6-(4-trifluoromethylbenzyloxy)benzo[b]thiophene-2-carboxylic acid] gave a relative green leaf area at 10 ppm of no less than 5%. Compound `Cc1ccc(S(=O)(=O)Nc2ccc3sc(C(=O)O)cc3c2)cc1` [Present compound 75, 5-[(4-methylphenylsulfonyl)amino]benzo[b]thiophene-2-carboxylic acid] has a relative green leaf area at 10 ppm of no less than 5%. Work on `CC(=O)Nc1c(C(=O)O)sc2ccccc12` [Present compound 69, 3-acetylamino-benzo[b]-thiophene-2-carboxylic acid] yielded a relative green leaf area at 10 ppm of no less than 5%. `O=C(O)c1cc2c(I)cccc2s1` [Present compound 14] showed a relative green leaf area at 10 ppm of no less than 5%. `O=C(O)c1cc2cccc(O)c2s1` [Present compound 79] showed a relative green leaf area at 10 ppm of no less than 5%. Compound `O=C(O)c1cc2ccc([N+](=O)[O-])cc2s1` [Present compound 19, 6-nitrobenzo[b]thiophene-2-carboxylic acid] has a relative green leaf area at 10 ppm of no less than 5%. With `NC(=O)c1ccc2sc(C(=O)O)cc2c1` [Present compound 59, 5-aminocarbonylbenzo[b]thiophene-2-carboxylic acid] the relative green leaf area at 10 ppm was no less than 5%. `O=C(O)c1sc2ccccc2c1C(F)(F)F` [Present compound 26, 3-(trifluoromethyl)benzo[b]thiophene-2-carboxylic acid] showed a relative green leaf area at 10 ppm of no less than 5%. Work on `O=C(O)c1cc2cc(NC(=O)C(F)(F)F)ccc2s1` [Present compound 70, 5-(trifluoroacetylamino)benzo[b]thiophene-2-carboxylic acid] yielded a relative green leaf area at 10 ppm of no less than 5%. Work on `O=C(O)c1cc2cc([S+]([O-])C(F)(F)F)ccc2s1` (stereo not drawn) [Present compound 99, 5-(trifluoromethylsulfinyl)benzo[b]thiophene-2-carboxylic acid] yielded a relative green leaf area at 10 ppm of no less than 5%. Compound `O=C(O)c1cc2cc(O)ccc2s1` [Present compound 77] has a relative green leaf area at 10 ppm of no less than 5%. Compound `O=C(Nc1ccc2sc(C(=O)O)cc2c1)c1ccccc1` [Present compound 65, 5-(benzoylamino)benzo[b]thiophene-2-carboxylic acid] has a relative green leaf area at 10 ppm of no less than 5%. `CSc1ccc2sc(C(=O)O)cc2c1` [Present compound 97, 5-methylthiobenzo[b]thiophene-2-carboxylic acid] gave a relative green leaf area at 10 ppm of no less than 5%. `O=C(c1ccccc1)c1ccc2sc(C(=O)O)cc2c1` [Present compound 57, 5-benzoylbenzo[b]thiophene-2-carboxylic acid] showed a relative green leaf area at 10 ppm of no less than 5%. In the case of `Cc1ccc2cc(C(=O)O)sc2c1` [Present compound 22], the relative green leaf area at 10 ppm is reported as no less than 5%. Compound `O=C(O)c1cc2c([N+](=O)[O-])cccc2s1` [Present compound 17, 4-nitrobenzo[b]thiophene-2-carboxylic acid] has a relative green leaf area at 10 ppm of no less than 5%. In the case of `O=C(O)c1cc2cc(-c3cccnc3)ccc2s1` [Present compound 45, 5-(3-pyridyl)benzo[b]thiophene-2-carboxylic acid], the relative green leaf area at 10 ppm is reported as no less than 5%. In the case of `CN(C)c1c(C(=O)O)sc2ccc(C(F)(F)F)cc12` [Present compound 110, 3-(N,N-dimethylamino)-5-trifluoromethylbenzo[b]thiophene-2-carboxylic acid], the relative green leaf area at 10 ppm is reported as no less than 5%. Work on `O=C(O)c1ccc2sc(C(=O)O)cc2c1` [Present compound 53, benzo[b]thiophene-2,5-dicarboxylic acid] yielded a relative green leaf area at 10 ppm of no less than 5%. In the case of `O=C(O)c1cc2cc(Cl)ccc2s1` [Present compound 6, 5-chlorobenzo[b]thiophene-2-carboxylic acid], the relative green leaf area at 10 ppm is reported as no less than 5%.

The compounds below were run on Nicotiana benthamiana (assay: Test Example 6: growth promotion under low-temperature stress by hydroponics of Nicotiana benthamiana (0.1 ppm)). Settings: compound at 0.1 ppm, 7 days at 1.5±1.0° C. low-temperature stress, then 3 days at 22° C., 5 or greater = growth promotion effect, read-out: value of a relative leaf area (Equation (1), area of green leaf).
Assay type: in vivo
Description: Test Example 6. Test for Evaluating Growth Promotion Under Low-Temperature Stress by Hydroponics of Nicotiana benthamiana
as §1
as §2, with “2, 3, 7, 11 to 13, 20, 23, 24, 30, 38, 39, 41 to 43, 46, 50, 64, 68, 80, 82, 88, 93, 94, 96, 104, 107,” for “4, 5, 6, 8, 14, 17, 19, 22, 26, 45, 51, 53, 57, 59, 65, 69, 70, 75, 77, 79, 91, 97, 99, 101,”, “112” for “110”, “[…]” for “10,000”, “[…]” for “MES”, “0.1” for “10”
as §3, with “the 5 μL of the” for “the 5 of the”, “concentration of 0.1 ppm was” for “concentration of 10 ppm was”, “at 22° C. under the” for “at 22° C., under the”, “and the seedlings raised from” for “and the seedling raised from”, “to the Murashige′Scoog medium of” for “to the Murashige⋅Scoog medium of”
as §4, §5
as §6, with “22° C., under the conditions of an illuminance” for “22° C., an illuminance”, “value of leaf area was” for “value of leafed area was”, “the compounds 2, 3, 7, 11 to 13, 20, 23, 24, 30, 38, 39, 41 to 43, 46, 50, 64, 68, 80, 82, 88, 93, 94, 96, 104, 107, and 112” for “the compounds 4, 5, 6, 8, 14, 17, 19, 22, 26, 45, 51, 53, 57, 59, 65, 67, 69, 70, 75, 77, 79, 91, 97, 99, 101, and 110”, “107, and 112 of the” for “101, and 110 of the”, “invention at 0.1 ppm, the” for “invention at 10 ppm, the”, “treatment minus(−) green area” for “treatment minus(−) a green area”
In the case of `Cc1cccc2cc(C(=O)O)sc12` [Present compound 23, 7-methylbenzo[b]thiophene-2-carboxylic acid], the relative green leaf area at 0.1 ppm is reported as no less than 5%. For `O=C(O)c1cc2cc(C(F)(F)F)cc(Cl)c2s1` [Present compound 104, 7-chloro-5-trifluoromethylbenzo[b]thiophene-2-carboxylic acid], the relative green leaf area at 0.1 ppm was no less than 5%. `Cc1cccc2sc(C(=O)O)cc12` [Present compound 20, 4-methylbenzo[b]thiophene-2-carboxylic acid] showed a relative green leaf area at 0.1 ppm of no less than 5%. Compound `O=C(O)c1sc2ccc(C(F)(F)F)cc2c1C(F)(F)F` [Present compound 107, 3,5-bis(trifluoromethyl)benzo[b]thiophene-2-carboxylic acid] has a relative green leaf area at 0.1 ppm of no less than 5%. `COc1ccc2sc(C(=O)O)cc2c1` [Present compound 82, 5-methoxybenzo[b]thiophene-2-carboxylic acid] showed a relative green leaf area at 0.1 ppm of no less than 5%. `CN(C)c1cccc2sc(C(=O)O)cc12` [Present compound 64, 4-(dimethylamino)benzo[b]thiophene-2-carboxylic acid] was tested, and the relative green leaf area at 0.1 ppm was no less than 5%.

From patent US9955689B2, “Method for promoting plant growth” (SUMITOMO CHEMICAL COMPANY, LIMITED, priority 2012, dated 2018)
